Holding throughout (format): in vivo
In assay [1] the test system is Brachiaria platyphylla (Griseb.) Nash (BRAPP). Nature of the assay: Postemergence foliar-applied, direct seeded rice, greenhouse: visual weed control. Particulars: 21 DAA. An excerpt: (§1) Seeds or nutlets of the desired test plant species were planted in a soil matrix prepared by mixing a loam or sandy loam soil (e.g., 28.6 percent silt, 18.8 percent clay, and 52.6 percent sand, with a pH of about 5.8 and an organic matter content of about 1.8 percent) and calcareous grit in an 80 to 20 ratio. The soil matrix was contained in plastic pots with a volume of 1 quart and a surface area of 83.6 cm^2. When required to ensure good germination and healthy plants, a fungicide treatment and/or other chemical or physical treatment was applied. The plants were grown for 8-22 days in a greenhouse with an approximate 14 h photoperiod which was maintained at about 29° C. during the day and 26° C. during the night. Nutrients (Peters Excel® 15-5-15 5-Ca 2-Mg and iron chelate) were applied in the irrigation solution as needed and water was added on a regular basis. Supplemental lighting was provided with overhead metal halide 1000-Watt lamps as necessary. The plants were employed for testing when they reached the first through fourth true leaf stage.
(§2) Treatments consisted of the acid or esters of 4-amino-3-chloro-5-fluoro-6-(4-chloro-2-fluoro-3-methoxy-phenyl)pyridine-2-carboxylic acid (Compound A), each formulated as an SC (suspension concentrate), and various herbicidal components alone and in combination. Forms of compound A were applied on an acid equivalent basis.
(§3) Treatment requirements were calculated based upon the rates being tested, the concentration of active ingredient or acid equivalent in the formulation, and a 12 mL application volume at a rate of 187 L/ha.
(§4) For treatments comprised of formulated compounds, measured amounts of compounds were placed individually in 25 mL glass vials and diluted in a volume of 1.25% (v/v) Agri-Dex® crop oil concentrated to obtain 12× stock solutions. […] Application solutions were prepared by adding an appropriate amount of each stock solution (e.g., 1 mL) and diluted to the appropriate final concentrations with the addition of 10 mL of an aqueous mixture of 1.25% (v/v) crop oil concentrate so that the final spray solutions contained 1.25+/−0.05% (v/v) crop oil concentrate.
(§5) As required, additional water and/or 97:3 v/v acetone/DMSO was added to individual application solutions so that the final acetone and DMSO concentrations of the application solutions being compared were 8.1% and 0.25%, respectively.
(§6) All stock solutions and applications solutions were visually inspected for compound compatibility prior to application. Spray solutions were applied to the plant material with an overhead Mandel track sprayer equipped with a 8002E nozzles calibrated to deliver 187 L/ha over an application area of 0.503 m^2 at a spray height of 18 to 20 inches (46 to 50 cm) above average plant canopy height. Control plants were sprayed in the same manner with the solvent blank.
(§7) The treated plants and control plants were placed in a greenhouse as described above and watered by sub-irrigation to prevent wash-off of the test compounds. After approximately 3 weeks, the condition of the test plants as compared with that of the untreated plants was determined visually and scored on a scale of 0 to 100 percent where 0 corresponds to no injury or growth inhibition and 100 corresponds to complete kill.
(§8) Colby's equation was used to determine the herbicidal effects expected from the mixtures (Colby, S. R. 1967. Calculation of the synergistic and antagonistic response of herbicide combinations. Weeds 15:20-22.).
(§9) The following equation was used to calculate the expected activity of mixtures containing two active ingredients, A and B: Expected=A+B−(A×B/100)

In assay [2] the test system is Digitaria sanguinalis (L.) Scop. (DIGSA). The assay is described as above. Particulars: 19 DAA.
Text: as §1, §2, §3, §4, §5, §6, §7, §8, §9

Assay [3] has as its system Echinochloa colona (L.) Link (ECHCO). The description is as above.
Text: as §1, §2, §3, §4, §5, §6, §7, §8, §9

Assay [4] relates to Ipomoea hederacea (L.) Jacq. (IPOHE). Nature of the assay: Pre-emergence soil-applied, greenhouse: visual weed control. Particulars: for Visual Weed Control (%) - 33 DAA IPOHE Obs: soil-applied pre-emergence.
Text: Seeds or nutlets of the desired test plant species were planted in a soil matrix prepared by mixing a loam soil (e.g., 32 percent silt, 23 percent clay, and 45 percent sand, with a pH of about 6.5 and an organic matter content of about 1.9 percent) and calcareous grit in an 80 to 20 ratio. The soil matrix was contained in plastic pots with a volume of 1 quart and a surface area of 83.6 square centimeters (cm^2).
Forms of compound A were applied on an acid equivalent basis.
For treatments comprised of formulated compounds, measured amounts of compounds were placed individually in 25 mL glass vials and diluted in a volume of 1.25% (v/v) Agri-Dex® crop oil concentrate (COC) to obtain 12× stock solutions. […] Application solutions were prepared by adding an appropriate amount of each stock solution (e.g., 1 mL) and diluted to the appropriate final concentrations with the addition of 10 mL of an aqueous mixture of 1.25% (v/v) COC so that the final spray solutions contained 1.25% (v/v) COC.
For treatments comprised of formulated and technical compounds, weighed amounts of the technical materials were placed individually in 25 mL glass vials and dissolved in a volume of 97:3 (v/v) acetone/DMSO to obtain 12× stock solutions, and measured amounts of the formulated compounds were placed individually in 25 mL glass vials and diluted in a volume of 1.5% (v/v) COC or water to obtain 12× stock solutions. […] Application solutions were prepared by adding an appropriate amount of each stock solution (e.g., 1 mL) and diluted to the appropriate final concentrations with the addition of an appropriate amount of an aqueous mixture of 1.5% (v/v) COC so that the final spray solutions contained 1.25% (v/v) COC. As required, additional water and/or 97:3 (v/v) acetone/DMSO was added to individual application solutions so that the final acetone and DMSO concentrations of the application solutions being compared were 8.1% and 0.25%, respectively.
All stock solutions and applications solutions were visually inspected for compound compatibility prior to application. Spray solutions were applied to the soil with an overhead Mandel track sprayer equipped with a 8002E nozzles calibrated to deliver 187 L/ha over an application area of 0.503 m^2 at a spray height of 18 inches (46 cm) above average pot height. Control pots were sprayed in the same manner with the solvent blank.
The treated and control pots were placed in a greenhouse and top watered as needed. […] The pots were maintained in a greenhouse with an approximate 14 hr photoperiod which was maintained at about 29° C. during the day and 26° C. during the night. Nutrients (Peters® Excel 15-5-15 5-Ca 2-Mg) were applied in the irrigation solution as needed and water was added on a regular basis. Supplemental lighting was provided with overhead metal halide 1000-Watt lamps as necessary. After approximately 4 weeks, the condition of the test plants as compared with that of the untreated plants was determined visually and scored on a scale of 0 to 100 percent where 0 corresponds to no injury or growth inhibition and 100 corresponds to complete kill.
as §8, §9

With `COc1c(Cl)ccc(-c2nc(C(=O)O)c(Cl)c(N)c2F)c1F` [Compound A Acid, 4-amino-3-chloro-6-(4-chloro-2-fluoro-3-methoxyphenyl)-5-fluoropyridine-2-carboxylic acid], the “Visual Weed Control (%) Obs” value is 60% in assay [1] (8.75 g ae/ha); 30% in assay [2] (4.38 g ae/ha); 60% in assay [3] (21 DAA, 4.38 g ae/ha); 90% in assay [3] (21 DAA, 8.75 g ae/ha).
With `COc1c(Cl)ccc(-c2nc(C(=O)OCc3ccccc3)c(Cl)c(N)c2F)c1F` [Compound A Benzyl Ester, benzyl ester of 4-amino-3-chloro-5-fluoro-6-(4-chloro-2-fluoro-3-methoxy-phenyl)pyridine-2-carboxylic acid], the “Visual Weed Control (%) Obs” value was 70% in assay [1] (4.38 g ae/ha); 35% in assay [2] (4.38 g ae/ha); 50% in assay [2] (8.75 g ae/ha); 65% in assay [3] (19 DAA, 4.38 g ae/ha); 90% in assay [3] (19 DAA, 8.75 g ae/ha); 20% in assay [4] (27 DAA, 16 g ae/ha). Besides, the “Visual Weed Control (%) Obs” value is listed as 40% in assay [4] (27 DAA, 32 g ae/ha); 0% in assay [4] (33 DAA, 16 g ae/ha); 5% in assay [4] (33 DAA, 32 g ae/ha). Moreover, the “Visual Weed Control (%) - 33 DAA IPOHE Obs” value in assay [4] (Compound A Benzyl Ester 16 g ae/ha alone, 33 DAA) turned out to be 0%; in assay [4] (Compound A Benzyl Ester 32 g ae/ha alone, 33 DAA), 5%.
Take `CSC(=O)c1c(C(F)F)nc(C(F)(F)F)c(C(=O)SC)c1CC(C)C` [Dithiopyr, S,S′-dimethyl-2-(difluoromethyl)-4-(2-methylpropyl)-6-(trifluoromethyl)-3,5-pyridinedicarbothioate]: the “Visual Weed Control (%) Obs” value worked out at 0% in assay [1] (35 g ai/ha); 0% in assay [1] (70 g ai/ha); 0% in assay [1] (140 g ai/ha); 0% in assay [3] (21 DAA, 35 g ai/ha); 0% in assay [3] (21 DAA, 70 g ai/ha); 0% in assay [3] (21 DAA, 140 g ai/ha). In addition, the “Visual Weed Control (%) Obs” value stood at 3% in assay [4] (27 DAA, 140 g ai/ha) and 20% in assay [4] (27 DAA, 280 g ai/ha).
For `CCC(CC)Nc1c([N+](=O)[O-])cc(C)c(C)c1[N+](=O)[O-]` [Pendimethalin, N-(1-ethylpropyl)-3,4-dimethyl-2,6-dinitrobenzenamine, reference compound], the “Visual Weed Control (%) Obs” value in assay [2] (140 g ai/ha) is given as 0%; in assay [2] (280 g ai/ha) it was 0%; in assay [3] (19 DAA, 140 g ai/ha), 0%; in assay [3] (19 DAA, 280 g ai/ha), 0%; in assay [3] (19 DAA, 560 g ai/ha) it was 0%.

For the origin of these results see US8846570B2, “Herbicidal compositions comprising 4-amino-3-chloro-5-fluoro-6-(4-chloro-2-fluoro-3-methoxyphenyl)pyridine-2-carboxylic acid or a derivative thereof and microtubule inhibiting herbicides” (Dow AgroSciences LLC, priority 2012, dated 2014).
